For data set [1], the system named is human islets. Kind of data set: Viability by fluorescent membrane integrity assay (syto green/ethidium bromide). It is filed as cell-based. The note with it: AAGP 3 mg/mL, 24 hr culture, vs non-supplemented control. The protocol: After 24 hr of culture, islets are assessed for recovery, viability and function. Recovery rate is calculated as the percentage of surviving islets after 24 hr culture in comparison to the initial count for each condition. Viability is assessed using a fluorescent membrane integrity assay with counter-stains syto green/ethidium bromide (Cedarlane Laboratories, Burlington, ON, and Sigma-Aldrich, ON) (Islet isolation for clinical transplantation. In: Shahidul. M, (ed). The islets of Langerhans. New York: Springer, 2010; Ranuncoli A, et al. Cell transplantation 2000; 9(3):409-414; Ricordi C. et al. Acta diabetologica latina 1990; 27(3):185-195; and Barnett M J et al. Cell transplantation 2004; 13(5):481-488).

Data set [2] has as its system syngeneic islet transplant. Kind of data set: Syngeneic full mass islet transplant with continuous tacrolimus treatment. It is filed as in vivo, mouse. To be noted: AAGP in culture media 1 hour prior to transplant; tacrolimus 1 mg/kg/day by osmotic pump. The text has this: FIG. 11 illustrates the post-transplant graft function in immunodefficient mice receiving minimal human islet mass (˜1000 IEQ). Islets were previously treated with AAGP™ and tracrolimus accordingly. […] The dotted line indicates graft recovery nephrectomy on day 60. B. Intraperitoneal glucose tolerance test (IPGTT) to evaluate metabolic response after receiving a glucose bolus. C. Insulin content of removed grafts after 60 days of transplant as an indication of residual islet mass. Data points represent mean±SEM adjusted per gram of tissue, (Tac− n=6, Tac+ n=3 and Tac+AAGP™ n=7), *p<0.05, **p<0.01 and ***p<0.001. D and E. Post-transplant graft function in mice receiving syngeneic full mass (˜500 IEQ) islet transplant. AAGP™ was added to the culture media 1 hour prior to transplant and tacrolimus was administered via a subcutaneous osmotic pump (implanted during the same procedure) at a continuous rate of 1 mg/kg/day. D. Pooled blood glucose profiles of animal over 40 days with clear dysfunction for Tac+ islets during the presence of Tac. Vertical dotted line indicates tacrolimus treatment cessation and marks a gradual recovery of Tac+ grafts. Horizontal continuous line at y=11 indicates the normoglycemia limit. Graft recovery nephrectomy was again performed on day 30. E. Mean time-to-euglycemia after transplant showing Tac+AAGP™ mice reversing diabetes earlier (p<0.001, log-rank, Mantel-cox test). […] These differences were not observed in the Tac+AAGP™ group.
To further support these findings a transplant experiment was performed in a syngeneic diabetic mouse transplant model with continuous treatment with tacrolimus to resemble clinical practice.
To make our experiments more clinically relevant, a new in vivo syngeneic mouse transplant model was performed, with tacrolimus as a continuous treatment by means of a subcutaneous osmotic pump. It was observed that the functional impairment of transplanted islets occurred immediately after starting administration of the CNI and lasted during the entire treatment period (7 days).

In data set [3] the test system is human islets. Kind of data set: Kidney subcapsular minimal mass islet transplant in Rag1 mice (Example 3). It is filed as in vivo, immunodeficient mice (Rag1). To be noted: ~1000 IEQ, islets cultured 24 h with AAGP 3 mg/mL, n=4 & 5. The protocol: Two research-grade human islet preparations are cultured for 24 hours in the following groups: • 1) AAGP™+ supplemented islets cells; and • 2) Control (non-supplemented islets)
Islets are cultured in humidified atmosphere of 95% air and 5% CO2 at 37° C., at a density of 200 IE/mL using standard tissue culture flask. AAGP™ concentration is 3 mg/mL. After 24 h, kidney subcapsular islet transplant is performed on immunodeficient mice (Rag1) with minimal islet mass (˜1000 IEQ) to assess transplant efficacy (n=4 & 5, control and AAGP™ respectively).

The test system of data set [4] is human islet cells. Kind of data set: Protection of human islets from tacrolimus toxicity (Example 2). It is filed as cell-based. To be noted: AAGP 3 mg/mL. As to the method:
Research-grade human islet preparations are cultured for 48 hours in the following groups: • 1) No tacrolimus (Tac−) treated beta islet cells; • 2) Tracrolimus (Tac+) treated beta islet cells; and • 3) Tacrolimus (Tac+) treated+AAGP™ supplementation beta islet cells.
After 48 h, tacrolimus ([…]) was added to group 2 and 3.
Islets are cultured in humidified atmosphere of 95% air and 5% CO2 at 37° C., at a density of 200 IE/mL using standard tissue culture flask. AAGP™ concentration is 3 mg/mL. Several tests are conducted on D1 post-islet isolation, including: Islet recovery, membrane integrity viability stain (Syto EB) as well as Glucose-stimulated Insulin Release.

The nature of data set [5]: Solubility and stability of AAGP in media. It is filed as physicochemical.
Data set [6] has as its system human islets. Description: Glucose-stimulated insulin secretion (GSIS) perifusion assay. It is filed as cell-based. The note with it: AAGP 3 mg/mL, 24 hr culture. As to the method: Islet secretory function is assessed by monitoring in vitro insulin secretory profile during continuous glucose stimulation, as described by Cabrera et al Cell transplantation 2008;16(10):1039-1048. This in vitro perifusion assay is a modality of continuous Glucose-Stimulated Insulin Secretion (GSIS) test to stress islets in alternating normoglycemic and hyperglycemic environment to model physiological islet response. Supernatants from the perifusion assay are collected and insulin levels are determined using a commercially available ELISA kit (Insulin ELISA kit. Mercodia Inc. Pittsburgh, PA, USA). Results are expressed as fold-change of insulin secretion compared to the low (2.8 mMol) glucose stimulation baseline, normalized for 100 IEQ.

The subject of data set [7] is human islets. Description: Intra-islet calcium concentration. To be noted: Tac−, Tac+AAGP groups. It is filed as cell-based. As to the method:
Various electrophysiology studies were performed on human islets to elucidate a potential mechanism of action for the AAGP™ by characterizing the CNI-related injury and its avoidance.

Data set [8] relates to human islets. Kind of data set: Extracellular ROS in culture media, Acridan Lumigen PS-3 assay. It is filed as cell-based. To be noted: media 24 hr after tacrolimus exposure, ± AAGP. The protocol: Frozen samples from all groups are utilized to determine reactive oxygen species (ROS) in the culture media, using the Acridan Lumigen™ PS-3 assay (Amershan ECL Plus kit, Fisher Scientific Inc. Ottawa, ON, Canada) (18). In this assay Acridan Lumigen™ PS-3 is excited by reactive oxygen and nitrogen species (RNS) in the presence of hydrogen peroxide, producing chemiluminescense at 430 nm. Media samples are flash-frozen with liquid nitrogen and stored until the assay is performed. CMRL culture media alone is used as a control, and results are expressed as fold-change increase compared to the control media.

The test system of data set [9] is human islet cells. Kind of data set: Initial characterization of human islets cultured 24 hours (Example 1). It is filed as cell-based. To be noted: AAGP 3 mg/mL. As to the method: Research-grade human islet preparations are cultured for 24 hours in the following groups: • 1) AAGP™ supplemented islets cells; and • 2) Controls (non-supplemented islets cells).
Islets are cultured in humidified atmosphere of 95% air and 5% CO2 at 37° C., at a density of 200 IE/mL using standard tissue culture flask. The AAGP™ concentration is 3 mg/mL. Several tests are conducted on day 1 post-islet isolation, including: Islet recovery, membrane integrity viability stain (Syto® EB) as well as Glucose-Stimulated Insulin Release.

Data set [10] relates to mouse splenocytes. Kind of data set: Allogeneic mixed lymphocyte reaction, T cell proliferation by CFSE staining. It is filed as cell-based. The note with it: vs IgG control, n=4. From the text:
The assay measures T cell proliferative response by levels of CFSE staining.

For `C[C@H](NC(=O)[C@H](C)NC(=O)[C@@H](N)CCCCNC(=O)C(F)(F)C1(O)O[C@H](CO)[C@H](O)[C@H](O)[C@H]1O)C(=O)O` (stereo partly shown) [AAGP™], the “cellular viability per membrane integrity assay” value in [1] was “no differences in cellular viability”. The “graft function / period to achieve euglycemia” value in data set [2] is “period to achieve euglycemia was similar to the control group”. Moreover, the “transplant outcome with minimal islet mass” value in [3] is recorded as “inconclusive”. For the same molecule, the “protection of islets exposed to tacrolimus in vitro” value in data set [4] is “protects islet exposed to tacrolimus in vitro”. In addition, the solubility result in data set [5] (all media) is given as “highly soluble in all media”. Besides, in [5] (compared to natural AFP), the stability result is listed as “more stable”. In addition, the “insulin secretion during the second secretory phase (perifusion curves)” value in data set [6] (vs control) was “significant increase in insulin secretion”. For the same molecule, the “GSIS perifusion area under the curve (insulin release)” value in data set [6] (control 75.5±0.5) is on record as 149.5±0.5. In addition, in [7], the “calcium concentration in islets” value is on record as “neither tacrolimus nor AAGP™ affected the calcium concentration”. For the same molecule, in [8], the “extracellular ROS (fold-increase vs control media)” value is on record as “ameliorated”. Also, in data set [9], the “toxicity on human islet cells” value was “no toxicity”. Moreover, the “islet survival in culture” value in data set [9] (24 hours) was “seems to enhance islet survival in culture”. Further, in data set [10], the “T cell proliferation (CD8+ and CD4+)” value is on record as “no significant decrease in proliferation of T cells”.
